Laboratory results: patent US4234586A, “Nitrogen bridgehead compounds having anti-allergic effect” (Chinoin Gyogyszer es Vegyeszeti Termekek Gyara Rt., priority 1977, dated 1980)
Values belong to the compound of their own block, whether it stands above or below them.

Experiments:
[1] = test system: rats; test: PCA test (antiallergic effect, rats); format: in vivo, rat; settings: for inhibition in vivo at 320 µM, 320 µmol/kg / ED50: Rattus norvegicus; for inhibition in vivo at 320 µM, 320 µmol/kg: single dose of 320 μM/kg, route not given, read-out: PCA test, percentage of activity for a single dose of 320 μM/kg
Description: (§1) The PCA text [Ovary: J. Immun. 81, 355 (1958)] and the Church test [British J. Pharm. 46, 56-66 (1972); Immunology 29, 527-534 (1975)] were used. The tests were carried out on rats.

[2] = test system: Released Hist.; test: Released Hist. in vitro; format: cell-based; settings: Rattus norvegicus
Description: as §1

[3] = test system: rats; test: Church test (antiallergic effect, rats); format: in vivo; settings: Rattus norvegicus, iv
Description: as §1

[4] = test system: asthma; settings: desired effect only by inhalation (spinhaler); cited from earlier work
[5] = iv, read-out: ED50 in the PCA test, further compounds
[6] = iv, rats, i.v., read-out: PCA test ED50 i.v.
[7] = iv, rats, i.v., second part of Table 1, read-out: PCA test ED50 i.v.
[8] = po, rats, p.o., read-out: PCA test ED50 p.o.

EC50 ([2]; third part of Table 1): 100 µM
Structure (SMILES): CC1CCC(=NNc2ccc(Cl)c(Cl)c2)c2ncc(C(=O)O)c(=O)n21 (centres unmarked) [Example 41, 9-(3,4-dichloro-phenyl-hydrazono)-6-methyl-4-oxo-6,7,8,9-tetrahydro-4H-pyrido-(1,2-a)pyrimidine-3-carboxylic acid]
inhibition in vivo at 320 µM, 320 µmol/kg ([1]; rats): 100%

EC50 ([2]; third part of Table 1): 100 µM
Structure (SMILES): CC1CCC(=NNc2cccc([N+](=O)[O-])c2)c2ncc(C(=O)O)c(=O)n21 (centres unmarked) [Example 43, 9-(3-nitro-phenyl)-hydrazono-6-methyl-4-oxo-6,7,8,9-tetrahydro-4H-pyrido(1,2-a)pyrimidine-3-carboxylic acid]
inhibition in vivo at 320 µM, 320 µmol/kg ([1]; rats): 100%

Structure (SMILES): CC1CCC(=NNc2ccccc2C(=O)O)c2ncc(C(=O)O)c(=O)n21 (centres unmarked) [Example 17, 9-(o-carboxy-phenyl-hydrazono)-6-methyl-4-oxo-6,7,8,9-tetrahydro-4H-pyrido(1,2-a)pyrimidine-3-carboxylic acid]
ED50 [1, 5]: 0.48 µmol/kg

EC50 ([2]; third part of Table 1): 73 µM
Structure (SMILES): Cc1cccc(NN=C2CCC(C)n3c2ncc(C(=O)O)c3=O)c1 (centres unmarked) [Example 50, 9-(3-methyl-phenyl-hydrazono)-6-methyl-4-oxo-6,7,8,9-tetrahydro-4H-pyrido(1,2-a)pyrimidine-3-carboxylic acid]
inhibition in vivo at 320 µM, 320 µmol/kg ([1]; rats): 100%

EC50 ([2]; third part of Table 1): 2 µM
Structure (SMILES): CC1CCC(=NNc2ccc(Br)cc2)c2ncc(C(=O)O)c(=O)n21 (centres unmarked) [Example 16, 9-(p-bromo-phenyl-hydrazono)-6-methyl-4-oxo-6,7,8,9-tetrahydro-4H-pyrido(1,2-a)pyrimidine-3-carboxylic acid]
inhibition in vivo at 320 µM, 320 µmol/kg ([1]; rats): 100%

EC50 ([2]; third part of Table 1): 100 µM
Structure (SMILES): CC1CCC(=NNc2ccc(C(=O)O)cc2)c2ncc(C(=O)O)c(=O)n21 (centres unmarked) [Example 48, 9-(4-carboxy-phenyl-hydrazono)-6-methyl-4-oxo-6,7,8,9-tetrahydro-4H-pyrido(1,2-a)pyrimidine-3-carboxylic acid]
inhibition in vivo at 320 µM, 320 µmol/kg ([1]; rats): 100%

Structure (SMILES): O=C(O)c1cc(=O)c2c(OCC(O)COc3cccc4oc(C(=O)O)cc(=O)c34)cccc2o1 [Disodium-chromoglycate, reference compound]
ED50 [1, 6]: 1 µmol/kg
activity by route of administration (in words) ([1]; oral vs intravenous): effective only when administered intravenously
PCA test ED50 p.o. (result in words) ([1]; rats, p.o.): ineffective
ED50 [3]: 0.84 µmol/kg
anti-asthmatic effect when administered orally [4]: ineffective when administered orally

EC50 ([2]; third part of Table 1): 312 µM
Structure (SMILES): CC1CCC(=NNc2cccc(Cl)c2)c2ncc(C(=O)O)c(=O)n21 (centres unmarked) [Example 45, 9-(3-chloro-phenyl-hydrazono)-6-methyl-4-oxo-6,7,8,9-tetrahydro-4H-pyrido(1,2-a)pyrimidine-3-carboxylic acid]
inhibition in vivo at 320 µM, 320 µmol/kg ([1]; rats): 100%

EC50 ([2]; second part of Table 1): 120 µM
Structure (SMILES): CC1CCC(=NNc2cccnc2)c2ncc(C(=O)O)c(=O)n21 (centres unmarked) [Example 23, 6-methyl-9-(3-pyridyl-hydrazono)-4-oxo-6,7,8,9-tetrahydro-4H-pyrido(1,2-a)pyrimidine-3-carboxylic acid]
ED50 [1, 7]: 0.53 µmol/kg
ED50 [1, 5]: 0.54 µmol/kg

EC50 ([2]; third part of Table 1): 90 µM
Structure (SMILES): CC1CCC(=NN)c2ncc(C(=O)O)c(=O)n21 (centres unmarked) [Example 26, 9-hydrazono-6-methyl-4-oxo-6,7,8,9-tetrahydro-4H-pyrido(1,2-a)pyrimidine-3-carboxylic acid]
inhibition in vivo at 320 µM, 320 µmol/kg ([1]; rats): 89%

Structure (SMILES): CC1CCC(=NNc2ccccc2)c2ncc(C(=O)O)c(=O)n21 (centres unmarked) [Example 14, 9-(phenyl-hydrazono)-6-methyl-4-oxo-6,7,8,9-tetrahydro-4H-pyrido(1,2-a)pyrimidine-3-carboxylic acid]
ED50 [1, 6]: 0.6 µmol/kg
ED50 [1, 8]: 1.2 µmol/kg
ED50 [3]: 0.31 µmol/kg

EC50 ([2]; second part of Table 1): 100 µM
Structure (SMILES): CC1CCC(=NNc2ccc(Cl)cc2)c2ncc(C(=O)O)c(=O)n21 (centres unmarked) [Example 18, 9-(p-chloro-phenyl-hydrazono)-6-methyl-4-oxo-6,7,8,9-tetrahydro-4H-pyrido(1,2-a)pyrimidine-3-carboxylic acid]
ED50 [1, 7]: 0.53 µmol/kg
ED50 [1, 5]: 0.53 µmol/kg

EC50 ([2]; third part of Table 1): 17.6 µM
Structure (SMILES): CCOc1ccc(NN=C2CCC(C)n3c2ncc(C(=O)O)c3=O)cc1 (centres unmarked) [Example 35, 9-(p-ethoxy-phenyl-hydrazono)-6-methyl-4-oxo-6,7,8,9-tetrahydro-4H-pyrido(1,2-a)pyrimidine-3-carboxylic acid]
ED50 [1, 5]: 1 µmol/kg
inhibition in vivo at 320 µM, 320 µmol/kg ([1]; rats): 100%

Structure (SMILES): CC1CCC(=NNc2ccccc2)c2ncc(C(=O)O)c(=O)n21 (single isomer, unassigned; (+)) [Example 37, (+)-9-(phenyl-hydrazono)-6-methyl-4-oxo-6,7,8,9-tetrahydro-4H-pyrido(1,2-a)pyrimidine-3-carboxylic acid]
ED50 [1, 6]: 0.29 µmol/kg
ED50 [1, 8]: 1 µmol/kg
ED50 [3]: 0.14 µmol/kg
